The values below come from patent publication US20240376113A1 (Volastra Therapeutics, Inc., priority 2020, published 2024).

Where two headings read alike, the source gives them in different places. Bounds are passed on as bounds.

Assay [1] addresses ENPP1 on MDA-MB-231 cells (Homo sapiens (Human), UniProt P22413). Description: Inhibition of ENPP1 hydrolysis of AMP p-nitrophenyl ester on MDA-MB-231 cells (Assay 2). It counts as cell-based. The settings on record: pNP-AMP 0.25 mM, MDA-MB-231 cells, 37° C. 3 h, KI,app from IC50 via Cheng/Prusoff. As for the experimental part: Inhibition of ENPP1 Hydrolysis of AMP p-Nitrophenyl Ester on MDA-MB-231 Cells (Assay 2)
ENPP1 is normally expressed on the human metastatic breast cancer cell line MDA-MB-231. Hydrolysis of the p-nitrophenyl ester of AMP (pNP-AMP), an isostere of ATP, is selectively catalyzed by ENPP1 in the supernatant of MDA-MB-231 cell cultures. Inhibition of the hydrolysis of pNP-AMP by MDA-MB-231 at pH 7.4 and 37° C. is a good model of physiologically relevant activity of membrane-bound ENPP1 at disease-relevant expression levels.
MDA-MB-231 cells were harvested using TypLE Express Enzyme digestion and suspended in 100 μL of Leibovitz's L-15 Medium, 20% FBS, seeding the cells in a 96-well assay plate with 4.5×10^4 cells/well. Cells were incubated at 37 C with 1% CO2 for 24 h. In a separate dilution plate, 2× of top dose of compound was prepared in phenol-red free 1640 medium without FBS and then 1:3 serial diluted in the same medium. The cell culture medium of L15 medium was aspirated carefully and cells were washed with PBS once, and 50 μL per well of test compound or DMSO blank are added to the assay plate. Substrate mix (50 μL; 0.5 mM pNP-AMP in phenol-red free 1640 media without FBS) was added for a pNP-AMP final concentration of 0.25 mM. The system was incubated at 37° C. for 3 h.

A further assay concerns the target ENPP-1 ECD (Homo sapiens (Human), UniProt P22413). The assay is described as follows: Inhibition of ENPP1 hydrolysis of 2′,3′-cGAMP (Assay 1). The settings on record: AMP-Glo luminescence, KI from IC50 via Cheng/Prusoff.
Setting [2] is: read-out: Assay 2 KI,app values (class).
[3] abbreviates: Assay 1 KI values (class), 2,3-cGAMP 24 μM.
[4] abbreviates: read-out: Assay 1 KI, 2,3-cGAMP 24 μM.

Chain of ENPP1 on MDA-MB-231 cells (P22413 whole entry): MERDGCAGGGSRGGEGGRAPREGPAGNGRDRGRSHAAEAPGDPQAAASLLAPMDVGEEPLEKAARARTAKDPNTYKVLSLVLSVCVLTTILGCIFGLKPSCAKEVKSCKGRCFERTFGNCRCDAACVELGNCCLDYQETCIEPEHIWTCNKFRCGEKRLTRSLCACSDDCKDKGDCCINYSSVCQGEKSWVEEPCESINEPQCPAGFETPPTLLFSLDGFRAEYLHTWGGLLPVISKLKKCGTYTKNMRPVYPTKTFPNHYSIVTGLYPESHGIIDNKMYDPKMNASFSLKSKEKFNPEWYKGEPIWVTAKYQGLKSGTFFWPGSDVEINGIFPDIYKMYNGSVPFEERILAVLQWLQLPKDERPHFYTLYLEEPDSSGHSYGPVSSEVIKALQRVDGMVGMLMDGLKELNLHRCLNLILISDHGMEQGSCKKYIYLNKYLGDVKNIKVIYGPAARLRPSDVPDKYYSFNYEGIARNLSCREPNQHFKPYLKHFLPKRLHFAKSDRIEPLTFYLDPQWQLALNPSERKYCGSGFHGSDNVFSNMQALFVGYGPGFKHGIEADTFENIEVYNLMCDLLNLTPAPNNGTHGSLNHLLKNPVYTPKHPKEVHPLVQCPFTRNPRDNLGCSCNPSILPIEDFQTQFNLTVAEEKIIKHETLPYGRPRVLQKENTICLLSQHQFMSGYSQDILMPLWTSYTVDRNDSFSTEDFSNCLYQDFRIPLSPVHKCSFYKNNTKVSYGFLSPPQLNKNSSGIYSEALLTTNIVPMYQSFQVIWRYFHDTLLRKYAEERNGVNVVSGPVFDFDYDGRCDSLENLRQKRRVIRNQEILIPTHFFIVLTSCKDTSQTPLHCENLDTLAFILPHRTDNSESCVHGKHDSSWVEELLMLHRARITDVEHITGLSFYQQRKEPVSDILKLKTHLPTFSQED
Chain of ENPP-1 ECD (P22413 98-925): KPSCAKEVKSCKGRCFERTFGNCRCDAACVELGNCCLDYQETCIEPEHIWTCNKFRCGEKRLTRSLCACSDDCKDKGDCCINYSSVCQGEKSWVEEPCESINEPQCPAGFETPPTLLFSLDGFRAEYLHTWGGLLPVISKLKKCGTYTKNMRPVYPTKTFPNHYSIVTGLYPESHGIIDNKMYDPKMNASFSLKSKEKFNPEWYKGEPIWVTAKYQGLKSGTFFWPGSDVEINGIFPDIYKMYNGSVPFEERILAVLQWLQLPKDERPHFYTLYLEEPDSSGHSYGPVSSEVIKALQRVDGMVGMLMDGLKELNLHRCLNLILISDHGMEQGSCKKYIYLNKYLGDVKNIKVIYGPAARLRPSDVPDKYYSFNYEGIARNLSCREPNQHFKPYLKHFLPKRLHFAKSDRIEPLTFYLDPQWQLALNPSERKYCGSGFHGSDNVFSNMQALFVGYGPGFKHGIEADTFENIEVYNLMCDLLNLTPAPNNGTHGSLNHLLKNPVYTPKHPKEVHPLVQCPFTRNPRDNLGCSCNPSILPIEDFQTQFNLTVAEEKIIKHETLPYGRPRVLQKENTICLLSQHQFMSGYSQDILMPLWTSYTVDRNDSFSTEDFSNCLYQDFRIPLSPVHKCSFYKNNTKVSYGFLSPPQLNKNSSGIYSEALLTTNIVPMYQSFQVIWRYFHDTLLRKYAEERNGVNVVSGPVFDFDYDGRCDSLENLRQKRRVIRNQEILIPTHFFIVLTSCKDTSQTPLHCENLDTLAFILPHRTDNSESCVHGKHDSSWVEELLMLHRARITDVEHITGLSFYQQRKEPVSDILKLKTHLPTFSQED
Protocol for ENPP-1 ECD: Test compounds were plated in a 3× dilution scheme in a 384 well plate.

As for `[2H]C([2H])([2H])N(c1c(Cc2ccc(S(C)(=N)=O)cc2)c(C)nc2ncnn12)C([2H])([2H])[2H]` (stereo not drawn) [Compound 49, [4-[{7-[di(^2H3)methylamino]-5-methyl-[1,2,4]triazolo[1,5-a]pyrimidin-6-yl}methyl)phenyl](imino)methyl-λ^6-sulfanone], the Ki in assay [1] (read-out: Assay 2 KI, app) was 4.7 nM; in assay [1] (setting [2]) it was below 10 nM; at ENPP-1 ECD (setting [3]), below 3 nM; at ENPP-1 ECD (setting [4]), 0.0621 nM.

Consider `CCc1nc2ncnn2c(N2CCCC2)c1Cc1ccc(S(C)(=N)=O)cc1` (stereo not drawn) [Compound 50, (4-{[5-ethyl-7-(pyrrolidin-1-yl)-[1,2,4]triazolo[1,5-a]pyrimidin-6-yl]methyl}phenyl)(imino)methyl-λ^6-sulfanone], for which the Ki was 15.7 nM in assay [1] (read-out: Assay 2 KI, app); above 10 nM in assay [1] (setting [2]); below 3 nM on ENPP-1 ECD (setting [3]).

Take `CN(C)c1c(Cc2ccc(S(C)(=N)=O)cc2)c(C2CC2)nc2ncnn12` (stereo not drawn) [Compound 53, (4-{[5-cyclopropyl-7-(dimethylamino)-[1,2,4]triazolo[1,5-a]pyrimidin-6-yl]methyl}phenyl)(imino)methyl-λ^6-sulfanone]: the Ki in assay [1] (read-out: Assay 2 KI, app) is 1.11 nM; in assay [1] (setting [2]) it was below 10 nM; at ENPP-1 ECD (setting [3]), below 3 nM.

Turning to `CS(=N)(=O)c1ccc(Cc2cnc3ncnn3c2N2CCCC2)cc1` (stereo not drawn) [Compound 54], the Ki in assay [1] (read-out: Assay 2 KI, app) was 74.7 nM; in assay [1] (setting [2]), above 10 nM; on ENPP-1 ECD (read-out: Assay 1 KI values (class), 2,3-cGAMP 24 μM), below 3 nM; on ENPP-1 ECD (setting [4]) it was 1.71 nM.

With `Cc1nc2ncnn2c(N(C)C)c1Cc1ccc(S(=N)(=O)Cc2ccccc2)cc1` (stereo not drawn) [Compound 55, benzyl(4-((7-(dimethylamino)-5-methyl-[1,2,4]triazolo[1,5-a]pyrimidin-6-yl)methyl)phenyl)(imino)-λ^6-sulfanone], the Ki in assay [1] (read-out: Assay 2 KI, app) was 1.65 nM; at ENPP-1 ECD (setting [3]) it was below 3 nM.

For `CCS(=N)(=O)c1ccc(Cc2c(C)nc3ncnn3c2N(C)C)cc1` (stereo not drawn) [Compound 57, (4-{[7-(dimethylamino)-5-methyl-[1,2,4]triazolo[1,5-a]pyrimidin-6-yl]methyl}phenyl)(ethyl)imino-λ^6-sulfanone], the Ki in assay [1] (read-out: Assay 2 KI, app) is 9.59 nM; in assay [1] (setting [2]) it was below 10 nM; at ENPP-1 ECD (setting [3]) it was below 3 nM.

For the compound `Cc1nc2ncnn2c(N(C)C)c1Cc1ccc(S(=N)(=O)CCO)cc1` (stereo not drawn) [Compound 59, (4-{[7-(dimethylamino)-5-methyl-[1,2,4]triazolo[1,5-a]pyrimidin-6-yl]methyl}phenyl)(2-hydroxyethyl)imino-λ^6-sulfanone], the Ki is 11.5 nM in assay [1] (read-out: Assay 2 KI, app); above 10 nM in assay [1] (setting [2]); below 3 nM on ENPP-1 ECD (setting [3]).

On to `COCCS(=N)(=O)c1ccc(Cc2c(C)nc3ncnn3c2N(C)C)cc1` (stereo not drawn) [Compound 60, (4-{[7-(dimethylamino)-5-methyl-[1,2,4]triazolo[1,5-a]pyrimidin-6-yl]methyl}phenyl)(imino)(2-methoxyethyl)-λ^6-sulfanone], for which the Ki in assay [1] (read-out: Assay 2 KI, app) was 6.25 nM; in assay [1] (setting [2]), below 10 nM; on ENPP-1 ECD (setting [3]), below 3 nM; on ENPP-1 ECD (setting [4]), 0.0862 nM.

Consider `CC(=O)NCCS(=N)(=O)c1ccc(Cc2c(C)nc3ncnn3c2N(C)C)cc1` (stereo not drawn) [Compound 64, N-{2-[(4-{[7-(dimethylamino)-5-methyl-[1,2,4]triazolo[1,5-a]pyrimidin-6-yl]methyl}phenyl)(imino)oxo-λ^6-sulfanyl]ethyl}acetamide], for which the Ki in assay [1] (read-out: Assay 2 KI, app) was 4.41 nM; in assay [1] (setting [2]), below 10 nM; on ENPP-1 ECD (setting [3]), below 3 nM; on ENPP-1 ECD (setting [4]), 0.0667 nM.

`Cc1nc2ncnn2c(N(C)C)c1Cc1ccc(S(=N)(=O)CCC(=O)O)cc1` (stereo not drawn) [Compound 72, 3-[(4-{[7-(dimethylamino)-5-methyl-[1,2,4]triazolo[1,5-a]pyrimidin-6-yl]methyl}phenyl)(imino)oxo-λ^6-sulfanyl]propanoic acid]: the Ki in assay [1] (read-out: Assay 2 KI, app) is 0.769 nM; in assay [1] (setting [2]), below 10 nM; on ENPP-1 ECD (setting [3]) it was below 3 nM; at ENPP-1 ECD (setting [4]), 0.0285 nM.

Consider `Cc1nc2ncnn2c(N(C)C)c1Cc1ccc([S@@](=N)(=O)CCC(=O)O)cc1` [Compound 72a], for which the Ki in assay [1] (read-out: Assay 2 KI, app) is 0.505 nM; at ENPP-1 ECD (setting [4]), 0.00881 nM.
